Experimental data from ChEMBL document CHEMBL4715711, “Development of cyanopyridine-triazine hybrids as lead multitarget anti-Alzheimer agents” (Bioorg Med Chem, 2016).
Calls of active or inactive are those of the source. The calls are words filed in the database; no cut-off is given here.

Assays:
SH-SY5Y [1] = experiment: Neuroprotective activity against amyloid beta (1 to 42)-induced neurotoxicity in human SH-SY5Y cells at 5 to 20 uM incubated for 48 hrs in presence of amyloid beta (1 to 42) by MTT assay; type: functional, cell-based; conditions: dose 5-20 µM
SH-SY5Y [2] = experiment: Cytotoxicity against human SH-SY5Y cells assessed as reduction in cell viability at 100 uM incubated for 48 hrs by MTT assay; type: cell-based
SH-SY5Y [3] = experiment: Cytotoxicity against human SH-SY5Y cells assessed as reduction in cell viability at 10 uM incubated for 48 hrs by MTT assay; type: cell-based
Homo sapiens [4] = organism: Homo sapiens; experiment: Inhibition of amyloid beta (1 to 42 ) (unknown origin) self aggregation at 25 uM after 48 hrs by TEM analysis
SH-SY5Y [5] = experiment: Inhibition of H2O2-induced ROS accumulation in human SH-SY5Y cells at 10 to 20 uM incubated for 24 hrs by […] probe based fluorescence assay; type: functional, cell-based; conditions: dose 10-20 µM
SH-SY5Y [6] = experiment: Neuroprotective activity against amyloid beta (1 to 42)-induced cell fragmentation in human SH-SY5Y cells at 20 uM incubated for 24 hrs in presence of amyloid beta (1 to 42) by phase-contrast microscopic analysis; type: functional, cell-based
SH-SY5Y [7] = experiment: Cytotoxicity against human SH-SY5Y cells assessed as reduction in cell viability at 5 uM incubated for 48 hrs by MTT assay; type: cell-based
SH-SY5Y [8] = experiment: Neuroprotective activity against amyloid beta (1 to 42)-induced shrink on cell body in human SH-SY5Y cells at 20 uM incubated for 24 hrs in presence of amyloid beta (1 to 42) by phase-contrast microscopic analysis; type: functional, cell-based
SH-SY5Y [9] = experiment: Inhibition of H2O2-induced cell death in human SH-SY5Y cells at 20 uM incubated for 24 hrs by microscopic analysis; type: functional, cell-based
Homo sapiens [10] = organism: Homo sapiens; experiment: Inhibition of amyloid beta (1 to 42 ) (unknown origin) self aggregation at 25 uM after 48 hrs by thioflavin-T fluorescence method relative to control
Acetylcholinesterase = Acetylcholinesterase (Electrophorus electricus, UniProt O42275); experiment: Inhibition of electric eel AchE using acetylthiocholine iodide as substrate incubated for 5 mins followed by substrate addition and measured after 2 mins by Ellman's method
Acetylcholinesterase, sequence (O42275 whole entry): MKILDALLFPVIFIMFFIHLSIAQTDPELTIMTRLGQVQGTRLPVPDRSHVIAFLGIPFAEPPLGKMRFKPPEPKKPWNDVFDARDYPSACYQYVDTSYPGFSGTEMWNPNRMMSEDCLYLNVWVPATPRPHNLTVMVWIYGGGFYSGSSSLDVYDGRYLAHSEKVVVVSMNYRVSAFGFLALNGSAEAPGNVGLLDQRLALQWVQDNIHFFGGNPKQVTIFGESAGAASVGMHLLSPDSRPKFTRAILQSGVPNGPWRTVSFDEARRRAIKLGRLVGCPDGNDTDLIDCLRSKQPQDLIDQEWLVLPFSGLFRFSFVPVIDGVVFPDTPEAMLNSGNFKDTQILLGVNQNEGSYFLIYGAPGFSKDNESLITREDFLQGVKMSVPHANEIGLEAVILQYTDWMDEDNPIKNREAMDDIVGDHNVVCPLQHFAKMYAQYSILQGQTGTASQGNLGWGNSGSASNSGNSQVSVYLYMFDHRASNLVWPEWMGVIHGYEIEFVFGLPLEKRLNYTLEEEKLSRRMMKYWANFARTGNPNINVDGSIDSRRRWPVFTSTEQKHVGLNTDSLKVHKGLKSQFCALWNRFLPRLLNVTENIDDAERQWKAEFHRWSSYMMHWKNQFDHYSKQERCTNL

SH-SY5Y [11] = experiment: Cytotoxicity against human SH-SY5Y cells assessed as reduction in cell viability at 25 uM incubated for 48 hrs by MTT assay; type: cell-based
SH-SY5Y [12] = experiment: Cytotoxicity against human SH-SY5Y cells assessed as reduction in cell viability at 50 uM incubated for 48 hrs by MTT assay; type: cell-based
SH-SY5Y [13] = experiment: Cytotoxicity against human SH-SY5Y cells assessed as reduction in cell viability at 1 uM incubated for 48 hrs by MTT assay; type: cell-based
SH-SY5Y [14] = experiment: Inhibition of H2O2-induced morphological changes in human SH-SY5Y cells at 20 uM incubated for 24 hrs by microscopic analysis; type: functional, cell-based
SH-SY5Y [15] = experiment: Neuroprotective activity against amyloid beta (1 to 42)-induced loss of adherence in human SH-SY5Y cells at 20 uM incubated for 24 hrs in presence of amyloid beta (1 to 42) by phase-contrast microscopic analysis; type: functional, cell-based
SH-SY5Y [16] = experiment: Cytotoxicity against human SH-SY5Y cells assessed as reduction in cell viability at 75 uM incubated for 48 hrs by MTT assay; type: cell-based
SH-SY5Y [17] = experiment: Neuroprotective activity against amyloid beta (1 to 42)-induced cell floating in human SH-SY5Y cells at 20 uM incubated for 24 hrs in presence of amyloid beta (1 to 42) by phase-contrast microscopic analysis; type: functional, cell-based
SH-SY5Y [18] = experiment: Neuroprotective activity against amyloid beta (1 to 42)-induced fade synapses in human SH-SY5Y cells at 20 uM incubated for 24 hrs in presence of amyloid beta (1 to 42) by phase-contrast microscopic analysis; type: functional, cell-based
Cholinesterase = Cholinesterase (Equus caballus, UniProt P81908); experiment: Inhibition of equine serum BuChE using butyrylthiocholine iodide as substrate incubated for 5 mins followed by substrate addition and measured after 2 mins by Ellman's method; type: cell-free
Cholinesterase, sequence (P81908 whole entry): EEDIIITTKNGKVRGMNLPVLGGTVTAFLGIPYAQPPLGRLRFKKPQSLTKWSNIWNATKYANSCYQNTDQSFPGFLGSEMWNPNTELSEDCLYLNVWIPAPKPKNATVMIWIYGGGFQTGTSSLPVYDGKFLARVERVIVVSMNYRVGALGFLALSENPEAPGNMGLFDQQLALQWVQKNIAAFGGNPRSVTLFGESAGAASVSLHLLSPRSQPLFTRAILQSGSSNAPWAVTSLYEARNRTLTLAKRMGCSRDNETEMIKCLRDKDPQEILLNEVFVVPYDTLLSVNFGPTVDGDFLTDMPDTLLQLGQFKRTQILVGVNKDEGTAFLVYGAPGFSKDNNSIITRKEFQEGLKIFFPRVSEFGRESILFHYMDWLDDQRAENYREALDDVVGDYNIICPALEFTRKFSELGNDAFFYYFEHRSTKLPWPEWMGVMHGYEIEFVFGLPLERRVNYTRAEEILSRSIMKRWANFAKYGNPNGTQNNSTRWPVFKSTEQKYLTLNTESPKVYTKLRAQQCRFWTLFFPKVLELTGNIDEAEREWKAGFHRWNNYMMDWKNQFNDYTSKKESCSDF

[19] = biological target: Acetylcholinesterase (Electrophorus electricus) (UniProt O42275); experiment: Mixed inhibition of electric eel AchE using acetylthiocholine iodide as substrate incubated for 5 mins followed by substrate addition and measured after 2 mins by Ellman's method based Lineweaver-Burk plot analysis; conditions: time 7.0 min
Acetylcholinesterase (Electrophorus electricus), sequence (O42275 24-633 limits assumed): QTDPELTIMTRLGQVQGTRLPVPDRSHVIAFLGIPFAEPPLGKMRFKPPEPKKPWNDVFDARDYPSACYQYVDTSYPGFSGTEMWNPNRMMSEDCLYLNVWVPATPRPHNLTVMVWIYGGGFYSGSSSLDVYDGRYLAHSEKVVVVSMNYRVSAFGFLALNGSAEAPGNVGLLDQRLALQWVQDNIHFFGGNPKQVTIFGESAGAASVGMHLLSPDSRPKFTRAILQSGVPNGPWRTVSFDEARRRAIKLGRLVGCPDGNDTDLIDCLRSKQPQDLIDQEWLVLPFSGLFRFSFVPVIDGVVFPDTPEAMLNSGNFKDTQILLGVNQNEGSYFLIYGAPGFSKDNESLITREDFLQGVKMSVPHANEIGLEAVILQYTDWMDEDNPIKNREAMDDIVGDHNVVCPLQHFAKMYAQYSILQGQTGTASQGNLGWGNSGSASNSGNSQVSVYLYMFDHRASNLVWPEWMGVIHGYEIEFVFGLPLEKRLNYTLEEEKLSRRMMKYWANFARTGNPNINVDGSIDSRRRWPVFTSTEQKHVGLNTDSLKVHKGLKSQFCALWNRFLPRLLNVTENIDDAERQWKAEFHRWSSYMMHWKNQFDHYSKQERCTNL

Structure (SMILES): COc1ccc(Nc2nc(Nc3cccc(C(F)(F)F)c3)nc(N3CCN(c4ncccc4C#N)CC3)n2)cc1
- Activity (SH-SY5Y [1]): Dose-dependent effect
- Activity (SH-SY5Y [2]): 83.3%
- Activity (SH-SY5Y [3]): 94.7%
- inhibition (Homo sapiens [4]): Active
- inhibition (SH-SY5Y [5]): Active
- Activity (SH-SY5Y [6]): Active
- Activity (SH-SY5Y [7]): 96.4%
- Activity (SH-SY5Y [8]): Active
- inhibition (SH-SY5Y [9]): Active
- inhibition (Homo sapiens [10]): 82.4%
- IC50 (Acetylcholinesterase): 80 nM
- Activity (SH-SY5Y [11]): 93.8%
- Activity (SH-SY5Y [12]): 89.6%
- Activity (SH-SY5Y [13]): 98.1%
- inhibition (SH-SY5Y [14]): Active
- Activity (SH-SY5Y [15]): Active
- Activity (SH-SY5Y [16]): 86.3%
- Activity (SH-SY5Y [17]): Active
- Activity (SH-SY5Y [18]): Active
- IC50 (Cholinesterase): 2020 nM

Structure (SMILES): COc1cc(/C=C/C(=O)CC(=O)/C=C/c2ccc(O)c(OC)c2)ccc1O
- inhibition (Homo sapiens [4]): Active
- inhibition (Homo sapiens [10]): 55.3%

Structure (SMILES): Cc1ccc(Nc2nc(Nc3cccc(C(F)(F)F)c3)nc(N3CCN(c4ncccc4C#N)CC3)n2)cc1
- inhibition (Homo sapiens [10]): 70.5%
- IC50 (Acetylcholinesterase): 153 nM
- IC50 (Cholinesterase): 2210 nM

Structure (SMILES): COc1ccc(Nc2nc(Nc3ccccc3F)nc(N3CCN(c4ncccc4C#N)CC3)n2)cc1
- inhibition (Homo sapiens [10]): 68.5%
- IC50 (Acetylcholinesterase): 1410 nM
- IC50 (Cholinesterase): 4130 nM

Structure (SMILES): N#Cc1cccnc1N1CCN(c2nc(Nc3cccc(C(F)(F)F)c3)nc(Nc3ccc(F)c(Cl)c3)n2)CC1
- Activity (SH-SY5Y [1]): Active
- Activity (SH-SY5Y [2]): 80.3%
- Activity (SH-SY5Y [3]): 95.7%
- inhibition (Homo sapiens [4]): Active
- inhibition (SH-SY5Y [5]): Active
- Activity (SH-SY5Y [6]): Active
- Activity (SH-SY5Y [7]): 95.4%
- inhibition [19]: Active
- Activity (SH-SY5Y [8]): Active
- inhibition (SH-SY5Y [9]): Active
- inhibition (Homo sapiens [10]): 83.7%
- IC50 (Acetylcholinesterase): 59 nM
- Activity (SH-SY5Y [11]): 92.8%
- Activity (SH-SY5Y [12]): 88.6%
- Activity (SH-SY5Y [13]): 97.1%
- inhibition (SH-SY5Y [14]): Active
- Activity (SH-SY5Y [15]): Active
- Activity (SH-SY5Y [16]): 84.3%
- Activity (SH-SY5Y [17]): Active
- Activity (SH-SY5Y [18]): Active
- IC50 (Cholinesterase): 3600 nM

Structure (SMILES): N#Cc1cccnc1N1CCN(c2nc(Nc3cccc(C(F)(F)F)c3)nc(NC3CC3)n2)CC1
- inhibition (Homo sapiens [10]): 60.7%
- IC50 (Acetylcholinesterase): 528 nM
- IC50 (Cholinesterase): 5250 nM

Structure (SMILES): N#Cc1cccnc1N1CCN(c2nc(Nc3ccc(F)cc3)nc(Nc3cccc(C(F)(F)F)c3)n2)CC1
- inhibition (Homo sapiens [10]): 80.4%
- IC50 (Acetylcholinesterase): 84 nM
- IC50 (Cholinesterase): 4890 nM

Structure (SMILES): N#Cc1cccnc1N1CCN(c2nc(Nc3cccc(C(F)(F)F)c3)nc(Nc3ccc(F)cc3F)n2)CC1
- inhibition (Homo sapiens [10]): 81.2%
- IC50 (Acetylcholinesterase): 72 nM
- IC50 (Cholinesterase): 2850 nM

Structure (SMILES): Cc1ccc(Nc2nc(Nc3ccc(F)c(Cl)c3)nc(N3CCN(c4ncccc4C#N)CC3)n2)cc1
- inhibition (Homo sapiens [10]): 63.5%
- IC50 (Acetylcholinesterase): 1700 nM
- IC50 (Cholinesterase): 5360 nM
